{
  "source": "patent US8609653B2",
  "about": "“Azaindole compounds and methods for treating HIV” (priority 2011, dated 2013)",
  "note": "Structures can show the parent of a compound that is named as a salt.",
  "data": [
    {"tested_on": "HIV", "assay": "MT4 assay: antiviral HIV activity in MT-4 cells", "format": "cell-based", "conditions": "Human immunodeficiency virus 1, MT4, 96 h, read-out: HIV MT4 Assay IC50 (μM), HTLV-1 transformed cell line MT-4; read-out 96 hours later with cell titer glo; 10 point dose response", "in_short": "(§1)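 Compounds tested in HTLV-1-transformed MT-4 cells for protection from HIV, with cytotoxicity run in parallel under the same conditions; CellTiter-Glo luminescence read 96 h later. IC50 from 10-point, 3–4-fold serial dilutions spanning >1000-fold, % inhibition relative to no-compound control, fitted by four-parameter logistic.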", "units": {"IC50": "µM"}, "values": [
      {"smiles": "Cc1nc2c(ccn2Cc2ccc(-n3cncn3)cc2)c(-c2ccc3c(c2)CCCO3)c1C(OC(C)(C)C)C(=O)O", "note": "(stereo not drawn) [Example 62, 2-(1-(4-(1H-1,2,4-triazol-1-yl)benzyl)-4-(chroman-6-yl)-6-methyl-1H-pyrrolo[2,3-b]pyridin-5-yl)-2-(tert-butoxy)acetic acid]", "IC50": 0.98},
      {"smiles": "Cc1nc2c(c(-c3ccc4c(c3C)NCCO4)c1[C@H](OC(C)(C)C)C(=O)O)CCN2Cc1cccc(F)c1F", "note": "(atropisomer, axis not shown; (M)) [Example 118, (2S)(M)-2-(tert-butoxy)-2-(1-(2,3-difluorobenzyl)-6-methyl-4-(5-methyl-3,4-dihydro-2H-benzo[b][1,4]oxazin-6-yl)-2,3-dihydro-1H-pyrrolo[2,3-b]pyridin-5-yl)acetic acid, trifluoroacetic acid salt]", "IC50": 0.14},
      {"smiles": "Cc1nc2c(ccn2Cc2ccc(F)c(F)c2)c(-c2ccc(Cl)cc2)c1[C@H](OC(C)(C)C)C(=O)O", "note": "[Example 3, (S)-2-(tert-butoxy)-2-(4-(4-chlorophenyl)-1-(3,4-difluorobenzyl)-6-methyl-1H-pyrrolo[2,3-b]pyridin-5-yl)acetic acid]", "IC50": 0.09},
      {"smiles": "Cc1nc2c(ccn2Cc2ccc(F)c(F)c2)c(-c2ccc3c(c2C)CCCO3)c1[C@H](OC(C)(C)C)C(=O)O", "note": "(atropisomer, axis not shown; (M)) [Example 87, (2S)(M)-2-(tert-Butoxy)-2-(1-(3,4-difluorobenzyl)-6-methyl-4-(5-methylchroman-6-yl)-1H-pyrrolo[2,3-b]pyridin-5-yl)acetic acid]", "IC50": 0.005},
      {"smiles": "Cc1nc2c(ccn2Cc2ccc(F)c(F)c2)c(-c2cc3c(cc2F)OCCC3)c1[C@H](OC(C)(C)C)C(=O)O", "note": "(atropisomer, axis not shown; (M)) [Example 109, (2S)(M)-2-(tert-butoxy)-2-(1-(3,4-difluorobenzyl)-4-(7-fluorochroman-6-yl)-6-methyl-1H-pyrrolo[2,3-b]pyridin-5-yl)acetic acid]", "IC50": 0.015},
      {"smiles": "Cc1ccc(-c2c([C@@H](OC(C)(C)C)C(=O)O)c(C)nc3c2ccn3[C@H](C)c2ccc(F)cc2)cc1", "note": "[Example 14, (R)-2-(tert-butoxy)-2-(1-((R)-1-(4-fluorophenyl)ethyl)-6-methyl-4-(p-tolyl)-1H-pyrrolo[2,3-b]pyridin-5-yl)acetic acid]", "IC50": 0.71},
      {"smiles": "Cc1ccc(-c2c(C(OC(C)(C)C)C(=O)O)c(C)nc3c2ccn3Cc2cc(F)ccc2F)cc1", "note": "(stereo not drawn) [Example 6, 2-(tert-butoxy)-2-(1-(2,5-difluorobenzyl)-6-methyl-4-(p-tolyl)-1H-pyrrolo[2,3-b]pyridin-5-yl)acetic acid]", "IC50": 0.182},
      {"smiles": "Cc1ccc(-c2c(C(OC(C)(C)C)C(=O)O)c(C)nc3c2ccn3Cc2ccc(F)cc2)c(F)c1", "note": "(stereo not drawn) [Example 93, 2-(tert-Butoxy)-2-(4-(2-fluoro-4-methylphenyl)-1-(4-fluorobenzyl)-6-methyl-1H-pyrrolo[2,3-b]pyridin-5-yl)acetic acid]", "IC50": 0.046},
      {"smiles": "COCCn1ccc2c(-c3ccc(C)cc3)c(C(OC(C)(C)C)C(=O)O)c(C)nc21", "note": "(stereo not drawn) [Example 75, 2-(tert-Butoxy)-2-(1-(2-methoxyethyl)-6-methyl-4-(p-tolyl)-1H-pyrrolo[2,3-b]pyridin-5-yl)acetic acid]", "IC50": 4.1},
      {"smiles": "Cc1nc2c(ccn2Cc2ccc(F)cc2)c(-c2ccc3c(c2)CCCO3)c1C(OC(C)(C)C)C(=O)O", "note": "(stereo not drawn) [Example 27, 2-(tert-butoxy)-2-(4-(chroman-6-yl)-1-(4-fluorobenzyl)-6-methyl-1H-pyrrolo[2,3-b]pyridin-5-yl)acetic acid]", "IC50": 0.08},
      {"smiles": "Cc1nc2c(c3c(n2C2CC2)CCCC3)c(-c2ccc3c(c2C)CCCO3)c1C(OC(C)(C)C)C(=O)O", "note": "(stereo not drawn) [Example 128, 2-(tert-butoxy)-2-(9-cyclopropyl-2-methyl-4-(5-methylchroman-6-yl)-6,7,8,9-tetrahydro-5H-pyrido[2,3-b]indol-3-yl)acetic acid]", "IC50": 0.06},
      {"smiles": "Cc1cc(F)ccc1Cn1ccc2c(-c3ccc4c(c3C)NCCO4)c([C@H](OC(C)(C)C)C(=O)O)c(C)nc21", "note": "(atropisomer, axis not shown; (M)) [Example 122, (2S)(M)-2-(tert-butoxy)-2-(1-(4-fluoro-2-methylbenzyl)-6-methyl-4-(5-methyl-3,4-dihydro-2H-benzo[b][1,4]oxazin-6-yl)-1H-pyrrolo[2,3-b]pyridin-5-yl)acetic acid]", "IC50": 0.014},
      {"smiles": "Cc1nc2c(ccn2Cc2ccc(F)cc2)c(-c2ccccc2F)c1C(OC(C)(C)C)C(=O)O", "note": "(stereo not drawn) [Example 91, 2-(tert-Butoxy)-2-(1-(4-fluorobenzyl)-4-(2-fluorophenyl)-6-methyl-1H-pyrrolo[2,3-b]pyridin-5-yl)acetic acid]", "IC50": 0.168},
      {"smiles": "Cc1nc2c(ccn2Cc2ccc(F)c(F)c2)c(-c2ccc3c(c2)CCCO3)c1[C@H](OC(C)(C)C)C(=O)O", "note": "[Example 29, (S)-2-(tert-butoxy)-2-(4-(chroman-6-yl)-1-(3,4-difluorobenzyl)-6-methyl-1H-pyrrolo[2,3-b]pyridin-5-yl)acetic acid]", "IC50": 0.024},
      {"smiles": "Cc1nc2c(ccn2C2(c3ccc(F)cc3)CC2)c(-c2ccc3c(c2)CCCO3)c1C(OC(C)(C)C)C(=O)O", "note": "(stereo not drawn) [Example 82, 2-(tert-butoxy)-2-(4-(chroman-6-yl)-1-(1-(4-fluorophenyl)cyclopropyl)-6-methyl-1H-pyrrolo[2,3-b]pyridin-5-yl)acetic acid]", "IC50": 0.3},
      {"smiles": "Cc1nc2c(ccn2Cc2cccc(Cl)c2F)c(-c2ccc3c(c2)CCCO3)c1C(OC(C)(C)C)C(=O)O", "note": "(stereo not drawn) [Example 40, 2-(tert-butoxy)-2-(1-(3-chloro-2-fluorobenzyl)-4-(chroman-6-yl)-6-methyl-1H-pyrrolo[2,3-b]pyridin-5-yl)acetic acid]", "IC50": 0.125},
      {"smiles": "Cc1ccc(-c2c([C@H](OC(C)(C)C)C(=O)O)c(C)nc3c2ccn3Cc2cc(F)c(F)c(F)c2)cc1", "note": "[Example 9, (S)-2-(tert-butoxy)-2-(6-methyl-4-(p-tolyl)-1-(3,4,5-trifluorobenzyl)-1H-pyrrolo[2,3-b]pyridin-5-yl)acetic acid]", "IC50": 0.04},
      {"smiles": "Cc1ccc(-c2c(C(OC(C)(C)C)C(=O)O)c(C)nc3c2ccn3Cc2ccc(Cl)cc2F)cc1", "note": "(stereo not drawn) [Example 23, 2-(tert-butoxy)-2-(1-(4-chloro-2-fluorobenzyl)-6-methyl-4-(p-tolyl)-1H-pyrrolo[2,3-b]pyridin-5-yl)acetic acid]", "IC50": 0.27},
      {"smiles": "Cc1ccc(-c2c(C(OC(C)(C)C)C(=O)O)c(C)nc3c2ccn3Cc2cccc(F)c2F)cc1", "note": "(stereo not drawn) [Example 21, 2-(tert-butoxy)-2-(1-(2,3-difluorobenzyl)-6-methyl-4-(p-tolyl)-1H-pyrrolo[2,3-b]pyridin-5-yl)acetic acid]", "IC50": 0.1},
      {"smiles": "COc1c(C)cc(-c2c(C(OC(C)(C)C)C(=O)O)c(C)nc3c2ccn3Cc2ccc(F)cc2)cc1C", "note": "(stereo not drawn) [Example 92, 2-(tert-Butoxy)-2-(1-(4-fluorobenzyl)-4-(4-methoxy-3,5-dimethylphenyl)-6-methyl-1H-pyrrolo[2,3-b]pyridin-5-yl)acetic acid]", "IC50": 0.98},
      {"smiles": "COc1ccc(-c2c([C@H](OC(C)(C)C)C(=O)O)c(C)nc3c2ccn3Cc2ccc(F)c(F)c2)c(C)c1", "note": "(atropisomer, axis not shown; (M)) [Example 111, (2S)(M)-2-(tert-Butoxy)-2-(1-(3,4-difluorobenzyl)-4-(4-methoxy-2-methylphenyl)-6-methyl-1H-pyrrolo[2,3-b]pyridin-5-yl)acetic acid]", "IC50": 0.037},
      {"smiles": "Cc1nc2c(ccn2Cc2ccc(F)c(F)c2)c(-c2ccc(F)c(Cl)c2)c1[C@H](OC(C)(C)C)C(=O)O", "note": "[Example 105, (S)-2-(tert-Butoxy)-2-(4-(3-chloro-4-fluorophenyl)-1-(3,4-difluorobenzyl)-6-methyl-1H-pyrrolo[2,3-b]pyridin-5-yl)acetic acid]", "IC50": 1.42},
      {"smiles": "Cc1nc2c(ccn2Cc2ccccc2F)c(-c2ccc3c(c2)CCCO3)c1C(OC(C)(C)C)C(=O)O", "note": "(stereo not drawn) [Example 39, 2-(tert-butoxy)-2-(4-(chroman-6-yl)-1-(2-fluorobenzyl)-6-methyl-1H-pyrrolo[2,3-b]pyridin-5-yl)acetic acid]", "IC50": 0.068}
    ]},
    {"tested_on": "HIV", "assay": "MT4 assay: antiviral HIV activity in MT-4 cells", "format": "cell-based", "conditions": "read-out: HIV MT4 Assay IC50; HTLV-1 transformed cell line MT-4; read-out 96 hours later with cell titer glo; 10 point dose response", "in_short": "as §1", "units": {"IC50": "µM"}, "values": [
      {"smiles": "Cc1nc2c(ccn2C(C)c2ccc(F)c(F)c2)c(-c2ccc3c(c2)CCCO3)c1C(OC(C)(C)C)C(=O)O", "note": "(stereo not drawn) [Example 71, 2-(tert-butoxy)-2-(4-(chroman-6-yl)-1-(1-(3,4-difluorophenyl)ethyl)-6-methyl-1H-pyrrolo[2,3-b]pyridin-5-yl)acetic acid]", "IC50": 0.016}
    ]}
  ]
}
